# Results from PubChem BioAssay (NCI).
# Values joined by “and” are separate entries in the source; they are usually repeats but may differ in a detail not shown here. Identical values can stand only once.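 Dose response: 5 concentrations. Exposure: 48 h. Format: 96-well plates. Endpoint: linear interpolation; highest concentration if not reached. Here, GI50 denotes the concentration required for 50% inhibition of growth. TGI marks complete inhibition of growth.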
# Experiments:
# Assay in all cases: inhibition of tumour cell growth, NCI panel, 48 h
# A549 NSCLC = test system: A549 NSCLC
# KM12 colon = test system: KM12 colon
# NCI-H23 lung = test system: NCI-H23 lung
# NCI-H522 lung = test system: NCI-H522 lung
# SF-268 CNS = test system: SF-268 CNS
# SF-295 CNS = test system: SF-295 CNS
# SK-MEL-2 melanoma = test system: SK-MEL-2 melanoma
# UACC-257 melanoma = test system: UACC-257 melanoma
# UACC-62 melanoma = test system: UACC-62 melanoma
# MALME-3M melanoma = test system: MALME-3M melanoma
SMILES,GI50 (A549 NSCLC),TGI (A549 NSCLC),GI50 (KM12 colon),TGI (KM12 colon),GI50 (NCI-H23 lung),TGI (NCI-H23 lung),GI50 (NCI-H522 lung),TGI (NCI-H522 lung),GI50 (SF-268 CNS),TGI (SF-268 CNS),GI50 (SF-295 CNS),TGI (SF-295 CNS),GI50 (SK-MEL-2 melanoma),TGI (SK-MEL-2 melanoma),GI50 (UACC-257 melanoma),TGI (UACC-257 melanoma),GI50 (UACC-62 melanoma),TGI (UACC-62 melanoma),TGI (MALME-3M melanoma),GI50 (MALME-3M melanoma)
O=C(Oc1ccc(O)c2c(=O)n3c(cc12)[nH]c1ccccc13)c1ccccc1,24 µM,66.8 µM,34.7 µM,> 100 µM,16 µM,37.7 µM,6.21 µM,41.2 µM,61 µM,> 100 µM,40.8 µM,> 100 µM,21 µM,> 100 µM,16.6 µM,42.2 µM,13.7 µM,27.5 µM,,
Cc1cc(S(=O)(=O)Nc2nc(N)nc(N3N=CCC3C)n2)c(S)cc1Cl (stereo not drawn),,> 10 µM,,> 10 µM,,> 10 µM,,> 10 µM,,> 10 µM,,> 10 µM,,> 10 µM,,> 10 µM,,,> 10 µM,
CC[N+](CCCCCCCCCC[N+](CC)(c1ccccn1)c1ccccn1)(c1ccccn1)c1ccccn1,0.456 µM,> 100 µM,0.739 µM,8 µM,0.696 µM,17.9 µM,,,1.02 µM,19.5 µM,0.668 µM,2.29 µM,1.88 µM,5.82 µM,0.745 µM,12.9 µM,0.915 µM,7.34 µM,17.7 µM,1.52 µM
CC1=C2C(O)C(C(C)CO)C(O)CC2(C)C(O)CC1 (stereo not drawn),,> 100 µM,,> 100 µM,,,,> 100 µM,,> 100 µM,,> 100 µM,,,,> 100 µM,,> 100 µM,> 100 µM,
COc1cc(C2c3cc4c(cc3[C@@H](Nc3ccc(C(=O)O)cc3)C3COC(=O)[C@H]23)OCO4)cc(OC)c1O (stereo partly drawn),,> 100 µM,,68.5 µM and > 17.5 µM,,31.1 µM and > 17.5 µM,,,,69.1 µM and > 17.5 µM,,> 100 µM,,75.3 µM and > 17.5 µM,,> 100 µM,,28.2 µM and > 17.5 µM,47.9 µM and > 17.5 µM,
CC(=O)CC1CCC(=O)CCC(=O)OC(CC(C)=O)CCC(=O)CCC(=O)O1 (stereo not drawn),,> 100 µM,,> 100 µM,,> 100 µM,,> 100 µM,,> 100 µM,,> 100 µM,,,,> 100 µM,,> 100 µM,> 100 µM,
Cc1nc2ccc(C(F)(F)F)cc2nc1Nc1ccc(Cl)c(Cl)c1,,21.6 µM,,,,26.4 µM,,,,37.5 µM,,11.8 µM,,30.2 µM,,25.4 µM,,29.1 µM,35.7 µM,
c1cnc2c(c1)-n1cccc1C1(CCSCC1)NN2,,> 100 µM,,> 100 µM,,,,> 100 µM,,> 100 µM,,> 100 µM,,> 100 µM,,> 100 µM,,,> 100 µM,
O=C(Nc1ccc(Cl)cc1)Nc1ccc(Cl)c(Cl)c1,4.58 µM,> 100 µM,3.31 µM,13.8 µM,3.34 µM,> 100 µM,4.15 µM,> 100 µM,4.36 µM,> 100 µM,4.02 µM,> 100 µM,3.07 µM,32.8 µM,3.76 µM,> 100 µM,5.59 µM,> 100 µM,,
CCOC(=O)C(C)(C)Oc1ccc2c(=O)cc(-c3ccc(Cl)cc3)oc2c1,,> 100 µM,,,,> 100 µM,,,,> 100 µM,,> 100 µM,,> 100 µM,,> 100 µM,,> 100 µM,> 100 µM,
Nc1c(C(=O)c2ccccc2)sc2nc(-c3cccs3)ccc12,0.492 µM,4.8 µM,0.103 µM,5.6 µM,0.331 µM,10.1 µM,0.0178 µM,0.0567 µM,0.664 µM,15.5 µM,0.171 µM,1.71 µM,0.252 µM,17.8 µM,,,0.0788 µM,10.4 µM,12.6 µM,1.19 µM
C=CCn1c(C)nc2cc(Nc3nc(Nc4ccc5nc(C)n(CC=C)c5c4)c4ccccc4n3)ccc21,,,0.254 µM,0.659 µM,1.88 µM,4.57 µM,1.43 µM,3.27 µM,1.28 µM,3.1 µM,1.19 µM,2.56 µM,,,,,,,,
Cc1cc2nc3c(C(OC4OC(CO)C(O)C(O)C4O)C(O)CO)nn(-c4ccccc4)c3nc2cc1C (stereo not drawn),,,,> 100 µM,,> 100 µM,,> 100 µM,,> 100 µM,,> 100 µM,,,,> 100 µM,,> 100 µM,> 100 µM,
CCOc1ccccc1NC(=O)/C=C1\NC(=O)CS1,,> 100 µM,,> 100 µM,,> 100 µM,,> 100 µM,,> 100 µM,,> 100 µM,,> 100 µM,,,,> 100 µM,> 100 µM,
